# Measurements reported in US5366983A, “Use of quaternary ammonium compounds to remove salmonella contamination from meat products” (The Board of Trustees of The University of Arkansas, priority 1992, dated 1994).
# Where “and” joins values, the source holds several entries; their conditions need not be identical. Equal values may be shown once. Read-outs that look alike come from different tables or passages of the source.
# What was measured:
# [1] = test system: Salmonella typhimurium TA100; experiment: Salmonella reversion assay after heating at 205° C., TA100; type: cell-based; conditions: for Revertants/plate: heated at 205° C.
# Experimental: (§1) Test strains TA98 and TA100 were used. Again, mutagenicities were determined both in the absence and in the presence of the mammalian liver S9 activating system.
# (§2) A response that was two times that of the solvent control was considered a positive response.
# [2] = test system: Salmonella attachment to human buccal epithelial cells; conditions: count on treated cell / untreated cell
# Experimental: The Salmonella suspension and the human buccal epithelial cells were prepared according to the method described in the detachment experiments of Example 1, except that only the control buccal epithelial cells were suspended in PBS and washed twice at 4500 rpm for 10 minutes. […] The exposure of the buccal epithelial cells to the Salmonella suspension and all subsequent procedures were performed according to the method described in Example 1.
# [3] = test system: Salmonella typhimurium ATCC 14028
# Experimental: Salmonella typhimurium ATCC 14028 was used for these studies and prepared as follows. A 16 hour culture in nutrient broth (BBL) was centrifuged at 15,000 rpm for 10 minutes at 4° C. The deposit was washed once with 0.04 M potassium phosphate buffer (PPB) at pH 7.0 and resuspended in fresh PPB to contain 1-2×10^9 bacteria/ml. Samples (1.0 ml) of this suspension were added into a 1.8 ml Eppendorff vial and centrifuged at 14,000 rpm for 4 minutes. The pellets were first suspended in 1.0 ml of PPB or 1.0 ml of an appropriate concentration of test chemical solution, and then centrifuged and washed with the buffer under the same conditions. After washing, the samples of bacterial suspensions were appropriately diluted in PPB. Duplicate 0.05 ml samples were withdrawn and immediately added onto nutrient agar plates. Colonies were counted after 24 hours incubation at 37° C.
# [4] = test system: Salmonella typhimurium TA98; experiment: Salmonella reversion assay after heating at 205° C., TA98; type: cell-based; conditions: for Revertants/plate: heated at 205° C.
# Experimental: as §1, §2
# [5] = test system: Salmonella typhimurium TA100; experiment: Salmonella reversion assay, TA100
# Experimental: Test strains TA98 and TA100 were obtained from Bruce N. Ames (University of California, Berkley, Calif.). Mutagenicities were determined both in the absence of and in the presence of a mammalian liver S9 activating system. S9 is the 9000×g supernatant prepared from liver homogenates from Aroclor 1254 stimulated male Sprague Dawley rats. The S9 was purchased from Molecular Toxicology, Inc. (Anapolis, Md.).
# Bacterial broth cultures were grown overnight at 37° with shaking in Oxoid Broth #2. For assays in the absence of S9, a 0.5 ml aliquot of 100 mM Sodium Phosphate Buffer, pH 7.4, was added to sterile 13×100 mm capped culture tubes. For assays in the presence of S9, a 0.5 ml aliquot of 10% S9 mix was added. The S9 mix consisted of 8 mM magnesium chloride, 33 mM potassium chloride, 5 mM glucose-6-phosphate, 4 mM NADP, 100 mM sodium phosphate, pH 7.4 and S9 in a concentration of approximately 1.46 mg protein/ml.
# The culture tubes were placed in an ice bath and 0.1 ml of the bacterial suspension and 0.1 ml of a DMSO solution of the test compound were added. The mixture was vortexed gently and incubated at 37° for 20 minutes with shaking in a water bath. Molten top agar (2.0 ml) containing 0.5 mM histidine HCl and 0.5 mM biotin were added, and the mixture was vortexed gently and poured onto a minimal glucose plate. After allowing the agar to solidify, the plates were inverted and placed in a 37° incubator in the dark for 48 hours. The revertant (mutant) colonies were counted and the background lawn was examined on all plates. A response that was two times that of the DMSO solvent control was considered a positive response.
# [6] = test system: Salmonella typhimurium ATCC 14028 attached to human buccal epithelial cells; experiment: microbe, parasite or virus in culture; type: cell-based; conditions: Table A-3
# Experimental: Additional studies on the detachment of Salmonella typhimurium from human buccal epithelial cells were conducted.
# S. typhimurium ATCC 14028 was grown in nutrient broth (BBL Microbiology system, Cockeysville, Md.) for 16 hours at 37° C. The cells were centrifuged and washed twice with 0.008 M phosphate buffered saline (PBS, at pH 7.2) at 4500 rpm for 10 minutes. The last suspension was diluted in PBS to obtain a cell concentration 0.5 to 1×10^9 cells/ml using spectrophotometric measurement. Human epithelial cells were obtained by swabbing the buccal surface of a healthy, nonsmoking donor. […] The number of living cells was estimated and the suspension was diluted to 0.5 to 1×10^5 cells/ml.
# The suspension of the human buccal cells was mixed with an equal volume of the bacterial suspension (3.0 ml), or PBS (0.8 ml) in 10 ml Erlenmeyer flasks. Contact was allowed for 1.5 hours at 35° C. under agitation. After incubation, 1.0 ml of each suspension was transferred into an Eppendorff vial, centrifuged at 3000 rpm for 10 minutes, and washed with PBS. The cells were treated with 1.0 ml PBS or 1.0 ml of the test chemical solution. Treatment was performed by suspending, gently vortexing, and centrifuging at 1500 rpm for 10 minutes. After the treatment, the cells were washed and placed on microscopic slides for examination.
# EC50 represents the inverse measurement of the potency of a compound. EC50 values were determined by a nonlinear regression of the detachment effect versus the cationic surfactant concentration data from Table A-3.
# adherent S. typhimurium = conditions: 10 minutes
structure (smiles),measurement,setting,value
"CCCCCCCCCCCCCCCC[n+]1ccccc1 [CPC, cetylpyridinium chloride]",Revertants/plate,"[1]; TA100, +S9, 0.1 μg/plate",122 ± 3 Revertants/plate
same,Revertants/plate,"[1]; TA100, +S9, 1.0 μg/plate",126 ± 14 Revertants/plate
same,Revertants/plate,"[1]; TA100, +S9, 5.0 μg/plate",118 ± 10 Revertants/plate
same,Revertants/plate,"[1]; TA100, +S9, 10.0 μg/plate",123 ± 8 Revertants/plate
same,Revertants/plate,"[1]; TA100, -S9, 0.1 μg/plate",117 ± 6 Revertants/plate
same,Revertants/plate,"[1]; TA100, -S9, 1.0 μg/plate",113 ± 8 Revertants/plate
same,Revertants/plate,"[1]; TA100, -S9, 5.0 μg/plate",123 ± 4 Revertants/plate
same,Revertants/plate,"[1]; TA100, -S9, 10.0 μg/plate",126 ± 4 Revertants/plate
same,mutagenicity after heating in vegetable oil (in words),"[1]; TA100, absence or presence of S9, all concentrations tested",did not produce substances which are mutagenic
same,Counts/con,[2]; 2.5 mcg/mL,62/71
same,Counts/con,[2]; 5 mcg/mL,41/71
same,Counts/con,[2]; 10 mcg/mL,26/70 and 24/74
same,Counts/con,[2]; 100 mcg/mL,30/70 and 23/74
same,bacterial viability,[3]; CPC 10 ug/ml + 0.0625% Na2-EDTA,6.21 ± 0.75 × 10^8 CFU/ml
same,bacterial viability,[3]; CPC 10 ug/ml + 0.125% Na2-EDTA,6.24 ± 0.79 × 10^8 CFU/ml
same,bacterial viability,[3]; CPC 10 ug/ml + 0.5% Na2-EDTA,5.79 ± 0.1 × 10^8 CFU/ml
same,bacterial viability,"[3]; CPC 10 ug/ml, no chelating agent",6.08 ± 0.6 × 10^8 CFU/ml
same,bacterial viability,[3]; CPC 17 ug/ml + 0.125% Na2-EDTA,1.52 ± 0.42 × 10^7 CFU/ml
same,bacterial viability,[3]; CPC 17 ug/ml + 0.5% Na2-EDTA,4.8 ± 0.42 × 10^6 CFU/ml
same,bacterial viability,"[3]; CPC 17 ug/ml, no chelating agent",7.25 ± 0.1 × 10^7 CFU/ml
same,bacterial viability,[3]; CPC 20 ug/ml + 0.25% EGTA,3.01 ± 0.44 CFU/ml
same,bacterial viability,[3]; CPC 20 ug/ml + 1% EGTA,2.64 ± 0.32 CFU/ml
same,bacterial viability,[3]; CPC 30 ug/ml + 0.25% EGTA,85 ± 65 CFU/ml
same,bacterial viability,[3]; CPC 30 ug/ml + 0.25% Na2-EDTA,20 ± 13 CFU/ml
same,bacterial viability,"[3]; CPC 30 ug/ml, no chelating agent",117 ± 189 CFU/ml and 82 ± 73 CFU/ml
same,bacterial viability,[3]; CPC 40 ug/ml + 1% EGTA,0 CFU/ml
same,bacterial viability,"[3]; CPC 40 ug/ml, no chelating agent",8 ± 14 CFU/ml
same,decrease in cell viability,[3]; CPC and Na2-EDTA used together,2.5 fold
same,log reduction at 20 µg/mL,"[3]; Salmonella enterica, read-out: decrease in CFU/ml",1.5
same,Revertants/plate,"[4]; TA98, +S9, 0.1 μg/plate",26 ± 4 Revertants/plate
same,Revertants/plate,"[4]; TA98, +S9, 1.0 μg/plate",20 ± 1 Revertants/plate
same,Revertants/plate,"[4]; TA98, +S9, 5.0 μg/plate",25 ± 4 Revertants/plate
same,Revertants/plate,"[4]; TA98, +S9, 10.0 μg/plate",22 ± 3 Revertants/plate
same,Revertants/plate,"[4]; TA98, -S9, 0.1 μg/plate",16 ± 3 Revertants/plate
same,Revertants/plate,"[4]; TA98, -S9, 1.0 μg/plate",20 ± 5 Revertants/plate
same,Revertants/plate,"[4]; TA98, -S9, 5.0 μg/plate",22 ± 3 Revertants/plate
same,Revertants/plate,"[4]; TA98, -S9, 10.0 μg/plate",25 ± 3 Revertants/plate
same,mutagenicity after heating in vegetable oil (in words),"[4]; TA98, absence or presence of S9, all concentrations tested",did not produce substances which are mutagenic
same,Revertants/plate,"[5]; TA100, +S9, 5 μg/plate",129 ± 14 Revertants/plate
same,Revertants/plate,"[5]; TA100, +S9, 10 μg/plate",136 ± 11 Revertants/plate
same,Revertants/plate,"[5]; TA100, +S9, 20 μg/plate",126 ± 14 Revertants/plate
same,Revertants/plate,"[5]; TA100, +S9, 40 μg/plate",125 ± 5 Revertants/plate
same,Revertants/plate,"[5]; TA100, +S9, 50 μg/plate",126 ± 10 Revertants/plate
same,Revertants/plate,"[5]; TA100, -S9, 1 μg/plate",98 ± 5 Revertants/plate
same,Revertants/plate,"[5]; TA100, -S9, 5 μg/plate",133 ± 5 Revertants/plate
same,Revertants/plate,"[5]; TA100, -S9, 10 μg/plate",130 ± 9 Revertants/plate
same,mutagenicity (in words),"[5]; TA100, absence of S9, low concentrations",nonmutagenic
same,mutagenicity and cytotoxicity (in words),"[5]; TA100, presence of S9",neither mutagenic nor cytotoxic
same,"adherence, mean value of attached bacteria",[6]; 2.5 ug/ml,73 ± 55
same,"adherence, mean value of attached bacteria",[6]; 5 ug/ml,42 ± 22
same,"adherence, mean value of attached bacteria",[6]; 10 ug/ml,28 ± 10
same,Colony Count (±SD),adherent S. typhimurium; 5 μg/ml,2.52 ± 2.69 × 10^3
same,Colony Count (±SD),adherent S. typhimurium; 10 μg/ml,4.40 ± 5.68 × 10^2
same,Colony Count (±SD),adherent S. typhimurium; 50 μg/ml,2.0 ± 4.5 × 10^1
